Where “and” joins values, the source holds several entries; their conditions need not be identical. Equal values may be shown once.
Tested on: GUMC-403
Experiment: viability at highest tested concentration (max response) relative to DMSO (% of DMSO control); higher = less cytotoxic
Conditions: library / dose series: MIPE library, 11-point 1:3 dilution, 48 h
In short: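 This value is viability at the highest tested concentration relative to vehicle control. GUMC-403 papilloma cells from a patient, grown by conditional reprogramming, were plated at 700/well in 1536-well plates and given 23 nL of compound by pin tool for 48 h. CellTiter-Glo luminescence on a ViewLux was normalised with vehicle wells at 100% and empty wells at 0%.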

| Compound | viability (top concentration 46.1 µM) | further results |
| --- | --- | --- |
| Cc1nc2ccc(CN(C)c3ccc(C(=O)N[C@@H](CCC(=O)O)C(=O)O)s3)cc2c(=O)[nH]1 | 116 |  |
| CCCCCNC(=O)N1CCC(CN(Cc2ccc(Cl)cc2)Cc2ccc([N+](=O)[O-])s2)C1 (centres undefined) | 83.4 |  |
| CN(C)C(=O)COC(=O)Cc1ccc(OC(=O)c2ccc(NC(=N)N)cc2)cc1 | 62.7 |  |
| COC1=CC(=C2C(=O)N(COC/3=C/C(=O)N4\C=C/C=C(OCCN5CCCCC5)\C4=N3)[S+]([O-])(=O)C2=C1)C(C)C | 122 |  |
| N#C/C(=C(/N)Sc1ccc(N)cc1)c1ccccc1C(F)(F)F | 87.9 |  |
| Cc1cc(SCc2sc(-c3ccc(C(F)(F)F)c(F)c3)nc2C)ccc1OCC(=O)O | 127 |  |
| C/C(=C\C(=O)Nc1ccccc1C(=O)O)c1ccc2ccccc2c1 | 127 |  |
| CC(=O)Nc1ccc(O)cc1 | 123 |  |
| C[C@H]1COC2=C3N1\C=C(C(O)=O)/C(=O)C3=CC(=C2N4CCN(C)CC4)F | 105 |  |
| CC(=O)OCC(=O)[C@@]1(O)CC[C@H]2[C@@H]3CCC/4=C/C(=O)/C=C\[C@]4(C)[C@H]3[C@@H](O)C[C@]12C | 123 |  |
| COc1ccc(Cc2ccc(NC(N)=O)cc2)cc1-c1cccc(Cl)c1 | 124 |  |
| CN(C)C(=O)C(CCN1CCC(O)(c2ccc(Cl)cc2)CC1)(c1ccccc1)c1ccccc1 | 103 |  |
| O=c1c(-c2ccc(O)cc2)coc2cc(O[C@@H]3O[C@H](CO)[C@@H](O)[C@H](O)[C@H]3O)ccc12 | 135 |  |
| CN1CCN(C(=O)O[C@H]2c3nccnc3C(=O)N2c2ccc(Cl)cn2)CC1 | 117 |  |
| COC(=O)[C@H](c1ccccc1Cl)N1CCc2sccc2C1 | 124 |  |
| CC(C)=CCC/C(C)=C/CC/C(C)=C/CC/C(C)=C/CC/C(C)=C/CC/C(C)=C/CC/C(C)=C/CC/C(C)=C/CC/C(C)=C/CO | 104 |  |
| CN[C@H]1CCC2=CC(=C(OC)C(=C2C/3=C/C=C(OC)\C(=O)/C=C13)OC)OC | 100 |  |
| C[C@]12CC(=O)[C@H]3[C@@H](CC\C4=C\C(=O)\C=C/[C@]34C)[C@@H]1CC[C@]2(O)C(=O)CO |  | viability (top concentration 23 µM): 131 |
| COC(=O)Nc1nc2cc(C(=O)c3ccccc3)ccc2[nH]1 | 88.2 |  |
| C[C@H](CCC(=O)O)[C@H]1CC[C@H]2[C@@H]3[C@@H](O)C[C@@H]4C[C@H](O)CC[C@]4(C)[C@H]3CC[C@]12C | 84.8 |  |
| CC(C)[C@H](CO)Nc1nc(Nc2cccc(Cl)c2)c2ncn(C(C)C)c2n1 | 21.1 |  |

| Compound | viability (top concentration 46.1 µM) | further results |
| --- | --- | --- |
| CCCCc1ccc2[nH]c(NC(=O)OC)nc2c1 | 112 |  |
| Cc1ccc(NC(=O)c2ccc(CN3CCN(C)CC3)cc2)cc1Nc1nccc(-c2cccnc2)n1 | 127 |  |
| Nc1nc(N)c(N=O)c(OCC2CCCCC2)n1 | 88.3 |  |
| Cc1[nH]c(/C=C2\C(=O)Nc3ccc([S+](=O)([O-])Cc4c(Cl)cccc4Cl)cc32)c(C)c1C(=O)N1CCC[C@@H]1CN1CCCC1 | 113 |  |
| C[C@]12CCC(=O)C(O)=C1CC[C@@H]1[C@@H]2CC[C@]2(C)C(=O)CC[C@@H]12 | 113 |  |
| CO[C@H]1/C=C/O[C@@]2(C)Oc3c(C)c(O)c4c(O)c(c5c(nc6cc(C)ccn65)c4c3C2=O)NC(=O)/C(C)=C\C=C\[C@H](C)[C@H](O)[C@@H](C)[C@@H](O)[C@@H](C)[C@H](OC(C)=O)[C@@H]1C | 133 |  |
| N=C(N)NC(=N)NCCc1ccccc1 | 83.9 |  |
| C=C(C)[C@@H]1CC[C@]2(C(=O)O)CC[C@]3(C)[C@H](CC[C@@H]4[C@@]5(C)CC[C@H](O)C(C)(C)[C@@H]5CC[C@]43C)[C@@H]12 | 94.5 |  |
| CCCOc1ccc(C(=O)OCCN(CC)CC)cc1N | 115 |  |
| Nc1nc(-c2nn(Cc3ccccc3F)c3ncccc23)nc(N)c1N1CCOCC1 | 111 |  |
| CC(=O)OC\C1=C(\[N@]2[C@@H](SC1)[C@H](N)C2=O)C(O)=O | 143 |  |
| Nc1ncnc2c1nc(Cl)n2[C@@H]1O[C@H](CO)[C@@H](O)[C@H]1O | 46 |  |
| CCOC(=O)[C@H]1O[C@@H]1C(=O)N[C@@H](CC(C)C)C(=O)NCCC(C)C | 109 |  |
| CCOC(=O)Nc1ccc(NCc2ccc(F)cc2)nc1N | 102 |  |
| Nc1cc(N2CCCCC2)nc(N)[n+]1[O-] | 91.1 |  |
| O=C(c1ccc(/C=C/c2n[nH]c3ccccc23)cc1)N1CCNCC1 | 86.5 |  |
| CC(C)C[C@H](NC(=O)c1cc2ccccc2s1)C(=O)N1CCN(C(=O)[C@H](CO)N[S+](=O)([O-])c2ccc(Cl)cc2Cl)CC1 | 109 |  |
| CN(C)CCN1C(=O)c2cccc3cc(N)cc(c23)C1=O | 62.2 |  |
| S=C(NCc1ccc2c(c1)OCO2)N1CCN(c2ncnc3c2oc2ccccc23)CC1 |  | viability (top concentration 92.2 µM): 100 |
| CCNC(=O)C[C@@H]1\N=C(C2=CC=C(Cl)C=C2)/C3=C(C=CC(=C3)OC)[N]4C(=NN=C14)C | 79.8 |  |
| C[C@@H](Cc1cc2c(c(C(N)=O)c1)N(CCCO)CC2)NCCOc1ccccc1OCC(F)(F)F | 112 |  |

| Compound | viability (top concentration 46.1 µM) | further results |
| --- | --- | --- |
| O=C(O)C(=O)c1cn(Cc2ccccc2)c2ccc(-c3ccc(OC(F)(F)F)cc3)cc12 | 111 |  |
| O=C1c2ccccc2-c2n[nH]c3cccc1c23 | 99.2 |  |
| CN(C)c1nc(N(C)C)nc(N(C)C)n1 | 95.4 |  |
| CCCc1nc(C(C)(C)O)c(C(=O)O)n1Cc1ccc(-c2ccccc2-c2nn[nH]n2)cc1 | 107 |  |
| CC(C)c1cnn2c(NCc3ccccc3)cc(NCCCCCCN)nc12 | 72.8 |  |
| O=C(O)COCCN1CCN(C(c2ccccc2)c2ccc(Cl)cc2)CC1 (centres undefined) | 117 |  |
| C[C@H]1[C@H](O)O[C@@H]2O[C@@]3(C)CC[C@H]4[C@H](C)CC[C@@H]1[C@@]24OO3 | 90.6 |  |
| Clc1ccc(C(Cn2ccnc2)OCc2ccsc2Cl)c(Cl)c1 (centres undefined) | 107 |  |
| OCCN1C[C@H](O)[C@@H](O)[C@H](O)[C@H]1CO | 151 |  |
| CCOC(=O)C(C)(C)Oc1ccc(Cl)cc1 | 110 |  |
| c1ccc2c(Cc3c[nH]c4ccccc34)c[nH]c2c1 | 75.9 |  |
| NC(=O)c1ncn([C@@H]2O[C@H](CO)[C@@H](O)[C@H]2O)c1N | 118 |  |
| CCn1c(-c2nonc2N)nc2c(C#CC(C)(C)O)ncc(OC[C@H]3CCCNC3)c21 | 100 |  |
| C=CC(=O)Nc1cc2c(Nc3ccc(F)c(Cl)c3)ncnc2cc1C#CC(C)(C)N1CCN(C)CC1 | 75.9 |  |
| CN(C)CCc1c[nH]c2ccc(C[C@H]3COC(=O)N3)cc12 | 106 |  |
| C\C1=N\N=C(\C2=CC=C(N)C=C2)C3=CC4=C(OCO4)C=C3C1 | 132 |  |
| C=C(C)[C@@H]1CC[C@]2(C)CC[C@]3(C)[C@H](CC[C@@H]4[C@@]5(C)CC[C@H](O)C(C)(C)[C@@H]5CC[C@]43C)[C@@H]12 | 135 |  |
| NC/1=N/C(=O)N/C=C1F | 104 |  |
| O=C(C1CC1)N1CC[C@@H](Cn2c(-c3ccc(-c4ccc5occc5c4)cc3)nc3cnccc32)C1 | 124 |  |
| NC/1=N/C(=O)N(/C=C1F)[C@H]2CS[C@H](CO)O2 | 115 |  |
| COC1=NC(=NC(=C1N\C2=N\CCN2)Cl)C | 95.8 |  |

| Compound | viability (top concentration 46.1 µM) | further results |
| --- | --- | --- |
| ClC1=C[NH]N=C1C\2NC(=N\C3=C2C(=O)CCC3)/NC4=NC5=CC=CC=C5O4 (centres undefined) | 124 |  |
| c1cc(OCCN2CCCCC2)cc(-c2n[nH]c3ccc(-c4nc[nH]n4)cc23)c1 | 111 |  |
| C=CCn1c(=O)c2cnc(Nc3ccc(N4CCN(C)CC4)cc3)nc2n1-c1cccc(C(C)(C)O)n1 | 63.1 |  |
| CC(C)OC(=O)OCOP(=O)(CO[C@H](C)Cn1cnc2c(N)ncnc21)OCOC(=O)OC(C)C.O=C(O)C=CC(=O)O | 118 and 94.5 |  |
| C#CCC(Cc1cnc2nc(N)nc(N)c2n1)c1ccc(C(=O)N[C@@H](CCC(=O)O)C(=O)O)cc1 (some centres undefined) | 95.2 |  |
| COC(=O)Nc1nc2cc(C(=O)c3ccc(F)cc3)ccc2[nH]1 | 88 |  |
| CCc1ccc(C(=O)Nc2cc(CN3CCN(C)CC3)cc(C(F)(F)F)c2)cc1C#Cc1cnc2ccnn2c1 | 119 |  |
| CCC(CC)[C@H](NC(C)=O)[C@@H]1[C@H](O)[C@@H](C(=O)O)C[C@H]1NC(=N)N | 106 |  |
| CCCC(CCC)C(=O)[O-] | 88.8 |  |
| COC1=CC=C(C=C1)C/2=C/OC3=C(C(=CC(=C3)O)O)C2=O | 120 |  |
| CC1(C)O[C@@H]2C[C@H]3[C@@H]4CCC5=CC(=O)C=C[C@]5(C)[C@H]4[C@@H](O)C[C@]3(C)[C@]2(C(=O)CO)O1 | 147 |  |
| C[C@@H]1CN(Cc2ccc(F)cc2)[C@@H](C)CN1C(=O)c1cc2c(C(=O)C(=O)N(C)C)cn(C)c2cc1Cl | 101 |  |
| CN1CCC(CC1)COC2=CN=C(N=C2)C3=CC(=CC=C3)CN4/N=C(\C=C/C4=O)C5=CC(=CC=C5)C#N | 96.2 |  |
| COc1c(Cl)cc2c([nH]c3cnccc32)c1NC(=O)c1cccnc1C | 96.7 |  |
| CC/1=C/C(=O)N(O)/C(=C1)C2CCCCC2 | 27.2 |  |
| COc1cc2c(Nc3ccc(Cl)c(Cl)c3F)ncnc2cc1OCC1C[C@@H]2CN(C)C[C@@H]2C1 (some centres undefined) | 12.5 |  |
| CC(C)NCC(O)COc1ccc(CCOCC2CC2)cc1 (centres undefined) | 117 |  |
| O=C(O)C(=O)Nc1cccc(-c2nnn[nH]2)c1 | 120 |  |
| C[S+](=O)([O-])c1ccc([C@@H](O)[C@@H](CO)NC(=O)C(Cl)Cl)cc1 | 126 |  |
| C[N]1C=C(C=N1)C2=CC=C3N=CC\4=C(N(C(=O)\C=C4)C5=CC6=C(CCN6C(=O)C=C)C=C5)C3=C2 | 104 |  |
| C[C@H]([C@H](O)CCC(C)(C)O)[C@H]1CC[C@@]2(O)C/3=C/C(=O)[C@@H]4C[C@@H](O)[C@@H](O)C[C@]4(C)[C@H]3CC[C@]12C | 120 |  |

— the supplement of paper PMC6723410
